Legend:
[1] = test system: ZIKV; assay: ZIKV titer-reduction assay (plaque assay); format: cell-based, Zika virus; settings: Huh7, MOI 0.2, 72 hpi; for inhibition at 8.5 µM / inhibition at 1.5 µM: Huh-7, 72 h
Procedure: Selected compounds were validated at 8.5 µM or 1.5 µM (for compounds considered toxic at higher concentrations) using titer-reduction assays. Huh7 cells (1.5 × 10^5 per well) were plated in 24-well plates. Next day, the cells were inoculated with ZIKV or DENV (MOI 0.2 or 0.05, respectively) and two hours later, the inoculum was replaced with post-infection medium containing compound of interest at 8.5 µM or 1.5 µM. Seventy-two hpi, supernatants from infected and treated cells were collected and viral titers were measured by plaque assay. To visualize plaques, confluent Vero cells in 24-well plates were inoculated with 1:10 serial dilutions of supernatants. After two hours, the inoculum was retired and replaced with 800 µL of overlay medium (MEM medium containing 1.3% methylcellulose, 2% FBS, 100 IU streptomycin/penicillin per mL and 10 mM HEPES). After 5 days (7 days for DENV), cells were washed with PBS, fixed with 2% formaldehyde, and stained using 0.5% crystal violet in 25% methanol. Infectious virus titer (pfu/mL) was determined using the following formula: number of plaques × dilution factor × (1/inoculum volume (mL)). Viral titers were normalized with DMSO-treated and infected cells (0% inhibition). The limit of detection was 200 pfu/mL (100% inhibition). […] Dose-response assays (Figure S4, Panels B and C) were performed for selected compounds using titer-reduction assays. We used a concentration range of 0.5 to 15 µM for all selected compounds except for compound 14 (range of 0.1–3 µM). Pfu/mL were normalized as mentioned for single-dose response experiment using the values for DMSO-treated and infected cells (0% inhibition) and the limit of detection value (200 pfu/mL) as 100% inhibition. Dose-response curves were built in GraphPad Prism and EC50 values were obtained from those curves.

[2] = test system: ZIKV; assay: ZIKV reporter assay (luciferase-expressing ZIKV PAN1 Nluc in Huh7 cells); format: cell-based; settings: Zika virus, Huh-7, Huh7, MOI 0.2, 72 hpi
Procedure: The initial screening for ZIKV was performed using the in-house developed infectious ZIKV reporter expressing Nanoluc (ZIKV PAN1 Nluc) (see details in SI). Briefly, 1.5 × 10^4 Huh7 cells per well were seeded in 96 well plates. Next day, cells were inoculated with the ZIKV reporter at a multiplicity of infection (MOI) of 0.2 in infection medium (MEM medium supplemented with 1% FBS, 100 IU streptomycin/penicillin per mL, 1 mM sodium pyruvate and 10 mM HEPES). After 2 h, the inoculum was replaced with post-infection medium (MEM medium supplemented with 5% FBS, 100 IU streptomycin/penicillin per mL, 1 mM sodium pyruvate and 10 mM HEPES) containing compound of interest (10 µM). We used the flavivirus NS5 MTase inhibitor NSC12155^13 (10 µM) and the NS5 RdRp inhibitor NITD008^12 (1 µM) as positive controls for inhibition or 0.05% DMSO as vehicle control. Seventy-two hours post-infection (hpi), the cells were lysed with 50 µL 1× luciferase lysis buffer (Promega, Madison, WI, USA), incubated 10 min at room temp and stored at −80 °C. Thirty-five µL of lysed cells were transferred to a white 96-well plate and combined with 35 µL Nano-Glo® luciferase assay substrate (Promega) diluted 1:50 in Nano-Glo® luciferase assay buffer (Promega). The reaction was incubated for 2 min and luminescence readings were acquired using a Neo 2 plate reader (BioTek, Winooski, VT, USA). Percent inhibition was calculated in GraphPad Prism (San Diego, CA, USA) normalizing the luciferase signal to infected cells treated with DMSO (0% inhibition) and uninfected cells treated with DMSO (100% inhibition). EC50 values were calculated in GraphPad Prism using data obtained from dose-response experiments. For compounds 1 and 8, a range of concentrations between 0.05 and 15 µM were used. For compounds 11, 14, 23 and NSC12155, we used concentrations from 0.005 to 90 µM and 0.002 to 45 µM for NITD008.

[3] = Cell viability assay (MTS); format: cell-based; settings: human, non-infected Huh7 cells; for viability at 10 µM: normalized to DMSO; for CC50 at 72 h: Huh7 cells
Procedure: Cell viability assays for non-infected Huh7 cells treated with the testing compounds (in-house library), control compounds (NITD008, RDV) and DMSO were performed in parallel with the antiviral screening. After 3 or 5 days of treatment, depending upon the experiment, cell viability was evaluated using the MTS-based tetrazolium reduction CellTiter 96 Aqueous Non-Radioactive cell proliferation assay (Promega). Treatment was retired from the wells and the cells incubated with MTS diluted 1:10 in MEM medium supplemented with 10% FBS. Absorbance was measured at 490 nm wavelength. Readings were normalized with DMSO-treated cells (100%) and expressed as % viability. For dose-response experiments, we used concentrations between 0.01 and 90 µM and dose-response curves and CC50 were calculated using GraphPad Prism.

SMILES	inhibition at 10 µM [2]	viability at 10 µM [3]	inhibition at 8.5 µM ([1]; Zika virus, 8.5 µM)	other results
Nc1ccc(Cn2ccc3c(NCc4cccc(Cl)c4)ncnc32)cc1 [Compound 2, 7-(4-Aminobenzyl)-N-(3-chlorobenzyl)-7H-pyrrolo[2,3-d]pyrimidin-4-amine]	72%	38%	–	Titer Reduction Assay % at 1.5 µM ([1]; 1.5 µM): toxic
Clc1cccc(CNc2ncnc3c2ccn3Cc2ccccc2)c1 [Compound 3, 7-Benzyl-N-(3-chlorobenzyl)-7H-pyrrolo[2,3-d]pyrimidin-4-amine]	42%	90%	68%	–
O=[N+]([O-])c1ccccc1Cn1ccc2c(NCc3cccc(Cl)c3)ncnc21 [Compound 4, N-(3-Chlorobenzyl)-7-(2-nitrobenzyl)-7H-pyrrolo[2,3-d]pyrimidin-4-amine]	44%	93%	82%	–
O=[N+]([O-])c1cccc(Cn2ccc3c(NCc4cccc(Cl)c4)ncnc32)c1 [Compound 5, N-(3-Chlorobenzyl)-7-(3-nitrobenzyl)-7H-pyrrolo[2,3-d]pyrimidin-4-amine]	77%	79%	92%	–
FC(F)(F)c1ccc(Cn2ccc3c(NCc4cccc(Cl)c4)ncnc32)cc1 [Compound 6, N-(3-Chlorobenzyl)-7-(4-(trifluoromethyl)benzyl)-7H-pyrrolo[2,3-d]pyrimidin-4-amine]	85%	62%	83%	–
CS(=O)(=O)c1ccc(Cn2ccc3c(NCc4cccc(Cl)c4)ncnc32)cc1 [Compound 7, N-(3-Chlorobenzyl)-7-(4-(methylsulfonyl)benzyl)-7H-pyrrolo[2,3-d]pyrimidin-4-amine]	98%	39%	–	inhibition at 1.5 µM ([1]; Zika virus, 1.5 µM): 69%
FC(F)(F)c1cccc(Cn2ccc3c(NCc4cccc(Cl)c4)ncnc32)c1 [Compound 9, N-(3-Chlorobenzyl)-7-(3-(trifluoromethyl)benzyl)-7H-pyrrolo[2,3-d]pyrimidin-4-amine]	92%	61%	–	Titer Reduction Assay % at 8.5 µM ([1]; 8.5 µM): toxic
CS(=O)(=O)c1cccc(Cn2ccc3c(NCc4cccc(Cl)c4)ncnc32)c1 [Compound 10, N-(3-Chlorobenzyl)-7-(3-(methylsulfonyl)benzyl)-7H-pyrrolo[2,3-d]pyrimidin-4-amine]	72%	82%	92%	–
Clc1cccc(CNc2ncnc3c2ccn3Cc2cccc3ccccc23)c1 [Compound 12, N-(3-Chlorobenzyl)-7-(naphthalen-1-ylmethyl)-7H-pyrrolo[2,3-d]pyrimidin-4-amine]	84%	73%	66%	–
Clc1cccc(CNc2ncnc3c2ccn3Cc2ccc3ccccc3c2)c1 [Compound 13, N-(3-Chlorobenzyl)-7-(naphthalen-2-ylmethyl)-7H-pyrrolo[2,3-d]pyrimidin-4-amine]	75%	45%	–	inhibition at 1.5 µM ([1]; Zika virus, 1.5 µM): 18%
Clc1cccc(CNc2ncnc3c2ccn3Cc2ccnc3ccccc23)c1 [Compound 14, N-(3-Chlorobenzyl)-7-(quinolin-4-ylmethyl)-7H-pyrrolo[2,3-d]pyrimidin-4-amine]	100%	48%	–	inhibition at 1.5 µM ([1]; Zika virus, 1.5 µM): 94%; EC50 ([1]; Zika virus, Huh-7): 1100 nM; EC90 ([1]; Zika virus, Huh-7): 2280 nM; EC50 [2]: 930 nM; CC50 at 72 h [3]: 5670 nM
N#Cc1ccc(Cn2ccc3c(NCc4cccc(Cl)c4)ncnc32)c2ccccc12 [Compound 15, 4-((4-((3-Chlorobenzyl)amino)-7H-pyrrolo[2,3-d]pyrimidin-7-yl)methyl)-1-naphthonitrile]	69%	84%	0%	CC50 at 72 h [3]: 39600 nM
Clc1cccc(CNc2ncnc3c2ccn3Cc2ccc3nc(Cl)ccc3c2)c1 [Compound 16, N-(3-Chlorobenzyl)-7-((2-chloroquinolin-6-yl)methyl)-7H-pyrrolo[2,3-d]pyrimidin-4-amine]	95%	34%	–	inhibition at 1.5 µM ([1]; Zika virus, 1.5 µM): 10%
Nc1ncnc2c1ccn2Cc1ccc([N+](=O)[O-])cc1 [Compound 17, 7-(4-Nitrobenzyl)-7H-pyrrolo[2,3-d]pyrimidin-4-amine]	0%	92%	–	–
O=[N+]([O-])c1ccc(Cn2ccc3c(NCc4ccccc4)ncnc32)cc1 [Compound 18, N-Benzyl-7-(4-nitrobenzyl)-7H-pyrrolo[2,3-d]pyrimidin-4-amine]	96%	42%	–	–
O=[N+]([O-])c1ccc(Cn2ccc3c(NCc4ccccc4Cl)ncnc32)cc1 [Compound 19, N-(2-Chlorobenzyl)-7-(4-nitrobenzyl)-7H-pyrrolo[2,3-d]pyrimidin-4-amine]	49%	80%	91%	–
O=[N+]([O-])c1ccc(Cn2ccc3c(NCc4ccc(Cl)cc4)ncnc32)cc1 [Compound 20, N-(4-Chlorobenzyl)-7-(4-nitrobenzyl)-7H-pyrrolo[2,3-d]pyrimidin-4-amine]	93%	49%	–	inhibition at 1.5 µM ([1]; Zika virus, 1.5 µM): 37%
O=[N+]([O-])c1ccc(Cn2ccc3c(NCc4cccc(Cl)c4Cl)ncnc32)cc1 [Compound 21, N-(2,3-Dichlorobenzyl)-7-(4-nitrobenzyl)-7H-pyrrolo[2,3-d]pyrimidin-4-amine]	67%	77%	91%	–
Cc1cccc(CNc2ncnc3c2ccn3Cc2ccc(C#N)cc2)c1 [Compound 25, 4-((4-((3-Methylbenzyl)amino)-7H-pyrrolo[2,3-d]pyrimidin-7-yl)methyl)benzonitrile]	84%	33%	–	–
N#Cc1ccc(Cn2ccc3c(NCc4ccccc4Cl)ncnc32)cc1 [Compound 26, 4-((4-((2-Chlorobenzyl)amino)-7H-pyrrolo[2,3-d]pyrimidin-7-yl)methyl)benzonitrile]	58%	76%	–	–
N#Cc1ccc(Cn2ccc3c(NCc4cccc(Cl)c4Cl)ncnc32)cc1 [Compound 27, 4-((4-((2,3-Dichlorobenzyl)amino)-7H-pyrrolo[2,3-d]pyrimidin-7-yl)methyl)benzonitrile]	71%	78%	–	–
N#Cc1ccc(Cn2ccc3c(NCc4cc(Cl)ccc4Cl)ncnc32)cc1 [Compound 28, 4-((4-((2,5-Dichlorobenzyl)amino)-7H-pyrrolo[2,3-d]pyrimidin-7-yl)methyl)benzonitrile]	74%	48%	–	–

— paper PMC8270260, “4,7-Disubstituted 7H-Pyrrolo[2,3-d]pyrimidines and Their Analogs as Antiviral Agents against Zika Virus” (Molecules, 2021)
